Measured values: US20150299182A1, “CRYSTALLINE FORMS OF (1S)-1-[5-(AMINO)-1,2,4-THIADIAZOL-3-YL]ETHANE-1,2-DIOL” (Array BioPharma Inc., priority 2012, published 2015)
“Also recorded” adds a separate entry of the source. Counter-ions that a name gives are not always drawn.

Legend:
[1] = Moisture balance / vapor sorption (hygroscopicity); type: physicochemical; conditions: for phase post vapor sorption experiment: based on XRPD results; for hygroscopicity: 5% to 95% relative humidity; for relative humidity above which the material is hygroscopic: vapor sorption curve; for sorbed water retained: upon drying back down to ambient relative humidity; for relative humidity by which the material fully re-hydrates: after drying to 5% relative humidity
Experimental: Moisture balance data was collected using a VTI SGA 100 or SGA CX symmetrical vapor sorption analyzer. Relative humidity was varied in increments or 5%, starting at 5% relative humidity thereby increasing to 95% relative humidity, and then undergoing a drying cycle back to 5% relative humidity. Equilibrium criteria was set at 0.01% weight change in 1 minute with a max equilibrium time of 180 minutes. Approximately 1-15 mg of sample was used.

[2] = 4 months
Experimental: (§1) Chemical and physical stability was initiated on these forms and samples were stored at 60° C., 40° C./75% RH, 25° C./60% RH, and 5° C.

[3] = Chemical and physical solid state stability on storage; conditions: for form change on storage: up to 4 months (phosphate salt up to 6 weeks)
Experimental: as §1

[4] = Storage at ambient conditions (form conversion); type: physicochemical; conditions: stored at ambient conditions
[5] = Thermal stability characteristics; type: physicochemical
Experimental: The thermal properties of AMG151 samples were characterized using a DSC Q1000 or DSC Q 100, TA Instruments, differential scanning calorimetry, and a TGA Q 500, TA Instruments, thermogravimetric analyzer. Data analysis was performed utilizing Universal Analysis 2000, TA Instruments. Heating rates of 10° C./min were used over a variety of temperature ranges for differential scanning calorimetry and thermogravimetric analysis. Samples ranging from <1-5 mg were prepared in crimped or open aluminum pans for DSC analysis.

[6] = Exposure to 95% relative humidity chamber/jar, then XRPD; type: physicochemical
Experimental: The DSC curve indicates a broad endotherm around 150° C. (attributed to desolvation), and one sharp endotherm around 193° C. (attributed to a melt). The TG curve indicates a 5.0% weight loss up to 175° C.
The phosphate salt Form D material was generated from desolvating Form C, and a representative XRPD pattern is shown in FIG. 34. The sample appears to be crystalline with an irregular morphology. The DSC curve indicates a sharp endotherm around 193° C. (attributed to a melt). […] The material appears to retain this sorbed water upon drying down to 15% relative humidity; however, upon reaching 5% relative humidity the material losses all of its sorbed water and returns to dry weight.

[7] = vapor sorption, as high as 95% relative humidity

phase post vapor sorption experiment [1]	hygroscopicity ([1]; vapor sorption)	relative humidity above which the material is hygroscopic [1]	weight change [1, 7] [%]	SMILES	further results
remained unchanged	hygroscopic			Cc1ncccc1Oc1cc(Sc2ccccn2)cnc1Nc1nc([C@H](O)CO)ns1 [Amorphous AMG151, (1S)-1-[5-({3-[(2-methylpyridin-3-yl)oxy]-5-(pyridin-2-ylsulfanyl)pyridin-2-yl}amino)-1,2,4-thiadiazol-3-yl]ethane-1,2-diol]	
remained unchanged	non-hygroscopic			Cc1ncccc1Oc1cc(Sc2ccccn2)cnc1Nc1nc([C@H](O)CO)ns1 [Form A, (1S)-1-[5-({3-[(2-methylpyridin-3-yl)oxy]-5-(pyridin-2-ylsulfanyl)pyridin-2-yl}amino)-1,2,4-thiadiazol-3-yl]ethane-1,2-diol]	
remained unchanged	non-hygroscopic			Cc1ncccc1Oc1cc(Sc2ccccn2)cnc1Nc1nc([C@H](O)CO)ns1 [Form F, (1S)-1-[5-({3-[(2-methylpyridin-3-yl)oxy]-5-(pyridin-2-ylsulfanyl)pyridin-2-yl}amino)-1,2,4-thiadiazol-3-yl]ethane-1,2-diol]	time found chemically stable [2]: up to 4 months; form change on storage ([3]; 40° C./75% RH): no form change; form change on storage ([3]; 60° C., listed as free base form F): no form change
				Cc1ncccc1Oc1cc(Sc2ccccn2)cnc1Nc1nc([C@H](O)CO)ns1 [Form G, (1S)-1-[5-({3-[(2-methylpyridin-3-yl)oxy]-5-(pyridin-2-ylsulfanyl)pyridin-2-yl}amino)-1,2,4-thiadiazol-3-yl]ethane-1,2-diol]	form conversion on storage [4]: readily convert to Form F
converted to an amorphous phase	hygroscopic	above 55 % relative humidity	9	Cc1ncccc1Oc1cc(Sc2ccccn2)cnc1Nc1nc([C@H](O)CO)ns1 [HCl salt Form A, (1S)-1-[5-({3-[(2-methylpyridin-3-yl)oxy]-5-(pyridin-2-ylsulfanyl)pyridin-2-yl}amino)-1,2,4-thiadiazol-3-yl]ethane-1,2-diol]	
converted to an amorphous phase	hygroscopic	above 75 % relative humidity	20	Cc1ncccc1Oc1cc(Sc2ccccn2)cnc1Nc1nc([C@H](O)CO)ns1 [HCl salt Form B, (1S)-1-[5-({3-[(2-methylpyridin-3-yl)oxy]-5-(pyridin-2-ylsulfanyl)pyridin-2-yl}amino)-1,2,4-thiadiazol-3-yl]ethane-1,2-diol]	
converted to Form C	hygroscopic	above 65 % relative humidity	16.5	Cc1ncccc1Oc1cc(Sc2ccccn2)cnc1Nc1nc([C@H](O)CO)ns1 [MSA salt Form B, (1S)-1-[5-({3-[(2-methylpyridin-3-yl)oxy]-5-(pyridin-2-ylsulfanyl)pyridin-2-yl}amino)-1,2,4-thiadiazol-3-yl]ethane-1,2-diol]	stability of the phase as a function of relative humidity [1]: unstable as a function of relative humidity; sorbed water retained [1]: 2-3%
remained unchanged	hygroscopic	above 75 % relative humidity	18	Cc1ncccc1Oc1cc(Sc2ccccn2)cnc1Nc1nc([C@H](O)CO)ns1 [MSA salt Form C, (1S)-1-[5-({3-[(2-methylpyridin-3-yl)oxy]-5-(pyridin-2-ylsulfanyl)pyridin-2-yl}amino)-1,2,4-thiadiazol-3-yl]ethane-1,2-diol]	sorbed water retained [1]: 2-3%
remained unchanged	non-hygroscopic		0.075	Cc1ncccc1Oc1cc(Sc2ccccn2)cnc1Nc1nc([C@H](O)CO)ns1 [fumarate co-crystal Form A, (1S)-1-[5-({3-[(2-methylpyridin-3-yl)oxy]-5-(pyridin-2-ylsulfanyl)pyridin-2-yl}amino)-1,2,4-thiadiazol-3-yl]ethane-1,2-diol]	form change on storage ([3]; 40° C./75% RH): no form change; form change on storage ([3]; 60° C.): no form change
	hygroscopic			Cc1ncccc1Oc1cc(Sc2ccccn2)cnc1Nc1nc([C@H](O)CO)ns1 [mono-hydrochloride salt Form C, (1S)-1-[5-({3-[(2-methylpyridin-3-yl)oxy]-5-(pyridin-2-ylsulfanyl)pyridin-2-yl}amino)-1,2,4-thiadiazol-3-yl]ethane-1,2-diol]	thermal stability [5]: less preferred thermal stability characteristics
remained unchanged	non-hygroscopic		0.8	Cc1ncccc1Oc1cc(Sc2ccccn2)cnc1Nc1nc([C@H](O)CO)ns1 [phosphate salt Form A, (1S)-1-[5-({3-[(2-methylpyridin-3-yl)oxy]-5-(pyridin-2-ylsulfanyl)pyridin-2-yl}amino)-1,2,4-thiadiazol-3-yl]ethane-1,2-diol]	relative humidity by which the material fully re-hydrates [1]: ≤ 55 % relative humidity
converted to Form A	slightly hygroscopic		3.5	Cc1ncccc1Oc1cc(Sc2ccccn2)cnc1Nc1nc([C@H](O)CO)ns1 [phosphate salt Form B, (1S)-1-[5-({3-[(2-methylpyridin-3-yl)oxy]-5-(pyridin-2-ylsulfanyl)pyridin-2-yl}amino)-1,2,4-thiadiazol-3-yl]ethane-1,2-diol]	stability of the phase as a function of relative humidity [1]: unstable as a function of ambient relative humidity; weight loss upon drying ([1]; upon drying down to 5% relative humidity): 8.5%
				Cc1ncccc1Oc1cc(Sc2ccccn2)cnc1Nc1nc([C@H](O)CO)ns1 [phosphate salt Form C, (1S)-1-[5-({3-[(2-methylpyridin-3-yl)oxy]-5-(pyridin-2-ylsulfanyl)pyridin-2-yl}amino)-1,2,4-thiadiazol-3-yl]ethane-1,2-diol]	stability of the phase as a function of relative humidity [1]: unstable as a function of ambient relative humidity; form after exposure to 95% relative humidity [6]: converted to Form A
remained unchanged	hygroscopic	above 55 % relative humidity		Cc1ncccc1Oc1cc(Sc2ccccn2)cnc1Nc1nc([C@H](O)CO)ns1 [phosphate salt Form D, (1S)-1-[5-({3-[(2-methylpyridin-3-yl)oxy]-5-(pyridin-2-ylsulfanyl)pyridin-2-yl}amino)-1,2,4-thiadiazol-3-yl]ethane-1,2-diol]	stability of the phase as a function of relative humidity [1]: unstable as a function of ambient relative humidity; weight change ([1]; around 75% relative humidity (appears to convert to a mono-hydrate)): 3.0%; form after exposure to 95% relative humidity [6]: convert to Form E
	slightly hygroscopic	Above 65 % relative humidity		Cc1ncccc1Oc1cc(Sc2ccccn2)cnc1Nc1nc([C@H](O)CO)ns1 [phosphate salt Form E, (1S)-1-[5-({3-[(2-methylpyridin-3-yl)oxy]-5-(pyridin-2-ylsulfanyl)pyridin-2-yl}amino)-1,2,4-thiadiazol-3-yl]ethane-1,2-diol]	stability of the phase as a function of relative humidity [1]: unstable as a function of ambient relative humidity; relative humidity by which the material fully re-hydrates [1]: ≤ 65 % relative humidity
				Cc1ncccc1Oc1cc(Sc2ccccn2)cnc1Nc1nc([C@H](O)CO)ns1 [phosphate salt, (1S)-1-[5-({3-[(2-methylpyridin-3-yl)oxy]-5-(pyridin-2-ylsulfanyl)pyridin-2-yl}amino)-1,2,4-thiadiazol-3-yl]ethane-1,2-diol]	time found stable ([3]; 40° C./75% RH): up to 6 weeks; form change on storage ([3]; 40° C./75% RH): no form change; time found stable ([3]; 60° C.): up to 6 weeks; form change on storage ([3]; 60° C.): no form change

SMILES	phase post vapor sorption experiment [1]	hygroscopicity ([1]; vapor sorption)	relative humidity above which the material is hygroscopic [1]	weight change [1, 7] [%]	further results
Cc1ncccc1Oc1cc(Sc2ccccn2)cnc1Nc1nc([C@H](O)CO)ns1 [Hydrate Form C, (1S)-1-[5-({3-[(2-methylpyridin-3-yl)oxy]-5-(pyridin-2-ylsulfanyl)pyridin-2-yl}amino)-1,2,4-thiadiazol-3-yl]ethane-1,2-diol]	remained unchanged	non hygroscopic; also recorded: non-hygroscopic		0.25	wt change ([1]; from 5% to 95% relative humidity): < 0.5%; form change on storage ([3]; 40° C./75% RH): no form change; time after which conversion to Form A was found ([3]; 60° C.): 2 weeks; form change on storage ([3]; 60° C., listed as free base mono-hydrate): converted to Form A
